{"source": "patent EP4494466A1", "about": "“SULFUR-CONTAINING COMPOUNDS AND USE THEREOF” (Consejo Superior de Investigaciones Científicas (CSIC), priority 2023, dated 2025)", "key": {"Aspergillus niger": {"system": "Aspergillus niger", "test": "Antifungal activity, spore germination inhibition growth assay (MTT)", "format": "cell-based", "settings": "A. niger spores, 24 h incubation at 28 °C, 4 replicates", "method": "(§1) The fungal species Aspergillus niger and Botrytis cinerea came from the fungal collection of institute de Ciencias Agrarias-CSIC, Madrid, Spain where they are maintained. The antifungal activity of the hydrolate extract and fractions were determined using a modified spore germination inhibition growth assay (Sainz, P. et al. Chemical composition and biological activities of Artemisia pedemontana subsp. assoana essential oils and hydrolate. Biomol. 2019, 9). The hydrolate extract or fractions were dissolved in dimethyl sulfoxide (DMSO) at 1% and evaluated at the final concentrations indicated.\n(§2) The spore suspensions were 7.5 × 10^5 cells/mL in NaCl 0.9% for A. niger and 1 × 10^7 cells/mL in distilled water for B. cinerea. Amphotericin B (5 µg/mL) was used as a positive control. The samples and spore suspensions (4 replicates) were placed on 96-well plates and incubated for 24 h (28 °C for A. niger and 25 °C for B. cinerea). After the incubation process, 25 µL of an MTT (5 mg/mL) plus menadione (1 mM) solution in RMPIMOPS were added, the plates were incubated again for 3 h, the medium was removed, 200 µL of acidic isopropanol (95% isopropanol and 5% 1 M HCl) was added, and the plates were incubated for another 30 min. The absorbance was read at 490 nm in an Elisa reader. The IC50 values (the effective dose to give 50% inhibition) were calculated by a regression curve of % spore germination inhibition on log dose."}, "Botrytis cinerea": {"system": "Botrytis cinerea", "test": "Antifungal activity, spore germination inhibition growth assay (MTT)", "format": "cell-based", "settings": "B. cinerea spores, 24 h incubation at 25 °C, 4 replicates", "method": "as §1, §2"}, "H. lusitanicum": {"system": "H. lusitanicum", "test": "Ixodicidal activity on larvae, cellulose contact toxicity", "format": "in vivo, Hyalomma lusitanicum", "settings": "24 h contact with treated cellulose, Probit Analysis", "method": "H. lusitanicum engorged female ticks were collected in central Spain (Finca La Garganta, Ciudad Real) from their host (deer) and maintained at 22-24 °C and 70% RH until oviposition and egg hatching. Resulting larvae (4-6 weeks old) were used for the bioassays (Galisteo Pretel, A. et al. Germacrone derivatives as new insecticidal and acaricidal compounds: a structure-activity relationship. Mol. 2019, 24). Briefly, 50 µL of test solution were added to 25 mg of powdered cellulose at different concentrations (initial concentration of 20 mg/ml) and the solvent was evaporated. For each test, three replicates with 20 larvae each were used. Dead ticks were counted after 24 h of contact with the treated cellulose at the environmental conditions described, using a binocular magnifying glass. The larvicidal activity data are presented as percent mortality corrected according to Schneider-Orelli's formula (Schneider-Orelli, O. Entomologisches praktikum: Einführung in die land- und forstwirtschaftliche Insektenkunde; aus dem entomologischen institut der eidgenössischen technischen hochschule in Zürich; Sauerländer, 1947). Effective lethal doses (LC50 and LC90, the concentration that kills 50% or 90% of the organisms, respectively) were calculated by Probit Analysis (5 serial dilutions, STATGRAPHICS Centurion XVI, version 16.1.02, Statgraphics Technologies, Inc, P.O. Box 134, The Plains, Virginia 20198, USA)."}}, "data": [{"smiles": "O=CC1=CCCSC1", "note": "[Compound 3, 5,6-dihydro-2H-thiopyran-3-carbaldehyde]", "values": [{"measurement": "LD50 (95% Confidence Limits)", "setting": "Aspergillus niger", "value": "16.96 (7.98-36.03) µg/mL"}, {"measurement": "LD50 (95% Confidence Limits)", "setting": "Botrytis cinerea", "value": "8.79 (5.36-14.43) µg/mL"}, {"measurement": "LD90 (95% Confidence Limits)", "setting": "H. lusitanicum", "value": "3.57 (3.20-4.23) µg/mg"}]}, {"smiles": "C=CCSCC(C=O)=CC", "note": "[Compound 1, 2-((allylthio)methyl)but-2-enal]", "values": [{"measurement": "LD50 (95% Confidence Limits)", "setting": "Aspergillus niger", "value": "78.07 (63.96-95.28)µg/mL"}, {"measurement": "LD50 (95% Confidence Limits)", "setting": "H. lusitanicum", "value": "8.42 (7.72-10.07) µg/mg"}, {"measurement": "LD90 (95% Confidence Limits)", "setting": "H. lusitanicum", "value": "15.62 (13.79-18.38) µg/mg"}]}]}
